These are literature values, as cited in US20140171511A1, “Cough Reducing Product” (priority 2011, published 2014).

The conditions of series [1]: relative to capsaicin, used to calculate equivalent dose.
For series [2] the following is noted: inhaled capsaicin as research tool, past 2 decades.
In series [3] the test system is IBS and gut pain sensitivity. To be noted: regular intake of capsaicin powder.

Turning to `COc1cc(CNC(=O)CCCC/C=C/C(C)C)ccc1O` [Capsaicin, 8-Methyl-N-vanillyl-trans-6-nonenamide], in series [1], the Typical equivalent strength is 100%. For the same compound, the serious adverse reactions result in series [2] is recorded as “no serious adverse reactions reported”. In addition, in series [3], the “IBS and gut pain sensitivity” value was “improvement”.

As for `COc1cc(CNC(=O)CCCCCC(C)C)ccc1O` [Nordihydrocapsaicin], the Typical equivalent strength in series [1] is 10%.
